Counter-ions that a name gives are not always drawn.
What was measured:
[1] = target: T1, RON kinase (Homo sapiens, UniProt Q04912); experiment: RON kinase enzyme inhibitory activity, FRET (TR-FRET) technique; type: biochemical; details: 60 min reaction
T1 construct: purchased Carna Bioscience
Experimental: The enzyme inhibitory activity (IC50) of the thienopyridine derivative was measured using FRET (fluorescence resonance energy transfer) technique. RON kinase (Carna Bioscience) was diluted with a kinase assay buffer (50 mM HEPES pH 7.5, 1 mM EGTA, 10 mM MgCl2, 2 mM DTT, and 0.01% Tween-20) to a concentration of 2× (0.4 nM) the final reaction concentration and the dilution was added to a 384-well plate at 5 μL/well. As sample compounds, the compounds synthesized in the examples of the present invention and the compounds of the comparative examples were used. The sample compounds were respectively dissolved in 100% DMSO to obtain 1 mM stock solutions, which were then subjected to eight 10-fold serial dilutions. The sample compounds were diluted with the kinase assay buffer to a concentration of 4× the final reaction concentration, and the dilutions were added to the 384-well plate at 2.5 μL/well. The plate was incubated at room temperature for 15 minutes. Next, 0.25 M ATP solution (Sigma Aldrich) was diluted with the kinase reaction buffer to a concentration of 4× (60 μM) the final reaction concentration, and a tyrosine peptide substrate (Perkin-Elmer) was diluted therein to a concentration of 4× (400 nM) the final reaction concentration. The dilution was added to the 384-well plate at 2.5 μL/well. Then, the 384-well plate was incubated at room temperature and the reaction was allowed to proceed for 60 minutes. After 60 minutes, EDTA (Sigma Aldrich) was diluted with TR-FRET detection buffer (Perkin-Elmer) to a concentration of 4× (40 mM) the final reaction concentration. A europium-labeled anti-phosphotyrosine antibody (Perkin-Elmer) was diluted in the above EDTA dilution to a concentration of 4× (8 nM) the final reaction concentration to prepare a stop solution of the RON kinase reaction. The stop solution was added to the 384-well plate at 10 μL/well to terminate the reaction, and the plate was incubated at room temperature for 60 minutes. Thereafter, the plate was read on Victor X5 plate reader (Perkin-Elmer). At this time, the excitation wavelength was 340 nm and the emission wavelengths were 620 nm and 665 nm. The IC50 values of the sample compounds were determined using GraphPad Prism™ 5 by expressing the emission energy at 665 nm as a function of the sample compound concentration.

[2] = tested on: HT29 cells; experiment: Cytotoxicity MTS assay, HT29; type: cell-based; details: Homo sapiens, HT-29, 72 hours
Experimental: (§1) In order to confirm the specific cytotoxicity of the drugs, the cultured cells were treated with 0.05% trypsin/EDTA (0.5% trypsin EDTA (10×), Product No.: 15400-054, GIBCO) to detach them from the culture dish, and 3,000 cells (KM12C) or 2,000 cells (HT29, Colo 320 HSR) were dispensed into each well.
(§2) After 24 hours, sample compounds were dissolved in DMSO (Product No.: D8418-250ML, SIGMA) to make 10 mM stock solutions. As the sample compounds, the compounds synthesized in the examples of the present invention and the compounds of the comparative examples were used.
(§3) The cells were treated with the sample compound dilutions, and cultured in a 5% CO2 incubator at 37° C. for 72 hours.
(§4) Thereafter, 20 μL of MTS solution (CellTiter™ 96 Aqueous One Solution Cell Proliferation Assay, Product No.: G3581, Promega) was dispensed into each well and mixed well, and the cells were incubated for 1 to 4 hours at 37° C. in a 5% CO2 incubator.

[3] = tested on: RON-activated KM12C colon cancer cell line; experiment: Cell killing efficacy, trypan blue exclusion assay, KM12C; type: cell-based; details: 48 hours
Experimental: (§5) Two colon cancer cell lines, RON-activated KM12C (80015, KCLB, MEM+10% FBS) and RON-mutated (Δ160) HT-29 (30038, KCLB, RPMI+10% FBS) were prepared in 6-well plates at 5×10^4 cells/well, respectively. After 24 hours, while freshly changing the medium, the sample compounds were added to the wells at a concentration of 1 μM or 5 μM and the plates were allowed to stand for 48 hours.
(§6) As the sample compounds, the compounds synthesized in the examples of the present invention and the compounds of the comparative examples were used.
(§7) After 48 hours, the cell suspensions were collected and centrifuged (1,500 rpm, 4 min.) to obtain the cells, and live cells and dead cells were quantitated (n=2) through a trypan blue (15250-061, Gibco) exclusion assay. The statistical analysis was performed using Excel™ T-test from Microsoft.
(§8) The cell death rates of the compounds of Examples and Comparative Examples were respectively measured and the results are shown in Table 4 as relative ratios to Comparative Example 1.

[4] = tested on: KM12C cells; experiment: Cytotoxicity MTS assay, KM12C; type: cell-based; details: Homo sapiens, 72 hours
Experimental: as §1, §2, §3, §4

[5] = tested on: RON-mutated (Δ160) HT-29 colon cancer cell line; experiment: Cell killing efficacy, trypan blue exclusion assay, HT-29; type: cell-based; details: HT29 cell, 48 hours
Experimental: as §5, §6, §7, §8

T1 sequence (Q04912 25-1400): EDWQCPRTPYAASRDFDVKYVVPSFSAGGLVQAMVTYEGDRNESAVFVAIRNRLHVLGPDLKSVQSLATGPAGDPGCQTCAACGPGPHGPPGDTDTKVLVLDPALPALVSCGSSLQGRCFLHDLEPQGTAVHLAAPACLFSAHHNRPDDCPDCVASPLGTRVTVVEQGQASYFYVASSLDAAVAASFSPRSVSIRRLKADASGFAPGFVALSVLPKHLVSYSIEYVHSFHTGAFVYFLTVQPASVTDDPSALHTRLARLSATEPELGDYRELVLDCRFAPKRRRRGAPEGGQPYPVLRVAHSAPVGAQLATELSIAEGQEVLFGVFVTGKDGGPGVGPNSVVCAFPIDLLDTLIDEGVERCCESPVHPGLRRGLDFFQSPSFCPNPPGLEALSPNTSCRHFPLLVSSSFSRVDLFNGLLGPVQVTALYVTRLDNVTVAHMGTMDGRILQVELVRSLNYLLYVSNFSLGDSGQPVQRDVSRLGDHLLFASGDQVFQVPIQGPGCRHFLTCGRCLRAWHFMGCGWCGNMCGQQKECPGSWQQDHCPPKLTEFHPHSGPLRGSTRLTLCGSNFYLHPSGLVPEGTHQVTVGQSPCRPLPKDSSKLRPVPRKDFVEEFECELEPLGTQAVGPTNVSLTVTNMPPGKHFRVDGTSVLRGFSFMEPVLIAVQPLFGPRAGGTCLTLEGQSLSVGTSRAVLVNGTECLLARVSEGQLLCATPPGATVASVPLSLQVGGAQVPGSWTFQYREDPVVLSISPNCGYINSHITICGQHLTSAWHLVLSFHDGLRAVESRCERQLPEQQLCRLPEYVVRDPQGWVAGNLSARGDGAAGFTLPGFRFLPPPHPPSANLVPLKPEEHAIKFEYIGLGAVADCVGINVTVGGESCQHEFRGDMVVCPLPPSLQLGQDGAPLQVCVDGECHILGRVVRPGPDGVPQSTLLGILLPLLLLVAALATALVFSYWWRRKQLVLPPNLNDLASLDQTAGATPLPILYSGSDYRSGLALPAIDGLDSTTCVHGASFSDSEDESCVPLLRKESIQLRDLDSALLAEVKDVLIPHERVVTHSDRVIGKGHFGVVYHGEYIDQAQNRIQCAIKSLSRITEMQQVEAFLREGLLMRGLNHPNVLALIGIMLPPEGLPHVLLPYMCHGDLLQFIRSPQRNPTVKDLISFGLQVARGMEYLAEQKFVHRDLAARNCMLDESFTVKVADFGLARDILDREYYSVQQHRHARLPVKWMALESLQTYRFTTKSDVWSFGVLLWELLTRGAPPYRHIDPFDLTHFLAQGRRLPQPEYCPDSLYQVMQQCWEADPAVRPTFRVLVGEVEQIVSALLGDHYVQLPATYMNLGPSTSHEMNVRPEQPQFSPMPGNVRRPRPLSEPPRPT

Structure (SMILES)	IC50 [1]	IC50 [2]	Cell death rate (Relative to Comp. Ex. 1) ([3]; 1 μM)	Cell death rate (Relative to Comp. Ex. 1) ([3]; 5 μM)	IC50 [4]	Cell death rate (Relative to Comp. Ex. 1) ([5]; 1 μM)	Cell death rate (Relative to Comp. Ex. 1) ([5]; 5 μM)
CCOc1ccn(-c2ccc(F)cc2)c(=O)c1C(=O)Nc1ccc(Oc2ccnc(N)c2Cl)c(F)c1 [Comp. Ex. 1, N-{4-[(2-amino-3-chloro-4-pyridinyl)oxy]-3-fluorophenyl}-4-ethoxy-1-(4-fluorophenyl)-2-oxo-1,2-dihydro-3-pyridinecarboxamide, reference compound]	1.11 nM	10000 to 20000 nM	x 1.00	x 1.00	511 nM	x 1.00	x 1.00
COc1ccc2c(Oc3ccc(NC(=O)c4c(C)n(CC(C)(C)O)n(-c5ccccc5)c4=O)cc3F)ccnc2c1 [Comp. Ex. 2, N-(3-fluoro-4-(7-methoxyquinolin-4-yloxy)phenyl)-1-(2-hydroxy-2-methylpropyl)-5-methyl-3-oxo-2-phenyl-2,3-dihydro-1H-pyrazole-4-carboxamide, reference compound]	2.89 nM		x 0.38	x 0.31		x 0.59	x 0.32
COCCNCc1ccc(-c2cc3nccc(Oc4ccc(NC(=O)c5c(OC)ccn(-c6ccc(F)cc6)c5=O)cc4F)c3s2)nc1.Cl [Example 2, N-(3-fluoro-4-{[2-(5-{[(2-methoxyethyl)amino]methyl}pyridin-2-yl)thieno[3,2-b]pyridin-7-yl]oxy}phenyl)-1-(4-fluorophenyl)-4-methoxy-2-oxo-1,2-dihydropyridine-3-carboxamide Hydrochloride]	0.1 nM		x 1.33	x 0.74		x 0.62	x 1.15
COCCNCc1ccc(-c2cc3nccc(Oc4ccc(NC(=O)c5c(OC)ccn(-c6ccccc6)c5=O)cc4F)c3s2)nc1.Cl [Example 3, N-(3-fluoro-4-{[2-(5-{[(2-methoxyethyl)amino]methyl}pyridin-2-yl)thieno[3,2-b]pyridin-7-yl]oxy}phenyl)-4-methoxy-2-oxo-1-phenyl-1,2-dihydropyridine-3-carboxamide Hydrochloride]	0.42 nM		x 0.66	x 1.26		x 1.80	x 2.22
COCCNCc1ccc(-c2cc3nccc(Oc4ccc(NC(=O)c5cccn(-c6ccc(F)cc6)c5=O)cc4F)c3s2)nc1.Cl [Example 4, N-(3-fluoro-4-{[2-(5-{[(2-methoxyethyl)amino]methyl}pyridin-2-yl)thieno[3,2-b]pyridin-7-yl]oxy}phenyl)-1-(4-fluorophenyl)-2-oxo-1,2-dihydropyridine-3-carboxamide Hydrochloride]	0.68 nM		x 0.59	x 0.80		x 3.51	x 3.63
CCOc1ccn(-c2ccc(F)cc2)c(=O)c1C(=O)Nc1ccc(Oc2ccnc3cc(-c4ccc(CNCCOC)cn4)sc23)c(F)c1.Cl [Example 7, 4-ethoxy-N-(3-fluoro-4-{[2-(5-{[(2-methoxyethyl)amino]methyl}pyridin-2-yl)thieno[3,2-b]pyridin-7-yl]oxy}phenyl)-1-(4-fluorophenyl)-2-oxo-1,2-dihydropyridine-3-carboxamide Hydrochloride]	0.28 nM		x 2.38	x 1.32		x 2.97	x 2.90
CCOc1ccn(-c2ccc(Cl)cc2)c(=O)c1C(=O)Nc1ccc(Oc2ccnc3cc(-c4ccc(CNCCOC)cn4)sc23)c(F)c1.Cl [Example 8, 1-(4-chlorophenyl)-4-ethoxy-N-(3-fluoro-4-{[2-(5-{[(2-methoxyethyl)amino]methyl}pyridin-2-yl)thieno[3,2-b]pyridin-7-yl]oxy}phenyl)-2-oxo-1,2-dihydropyridine-3-carboxamide Hydrochloride]	0.01 nM		x 0.92	x 1.19		x 2.24	x 2.52
COCCNCc1ccc(-c2cc3nccc(Oc4ccc(NC(=O)c5c(OC)ccn(-c6ccc(F)cc6)c5=O)cc4Cl)c3s2)nc1.Cl [Example 9, N-(3-chloro-4-{[2-(5-{[(2-methoxyethyl)amino]methyl}pyridin-2-yl)thieno[3,2-b]pyridin-7-yl]oxy}phenyl)-1-(4-fluorophenyl)-4-methoxy-2-oxo-1,2-dihydropyridine-3-carboxamide Hydrochloride]	0.08 nM		x 2.26	x 2.87		x 4.08	x 3.53
COCCNCc1ccc(-c2cc3nccc(Oc4ccc(NC(=O)c5c(OC)ccn(-c6ccc(F)cc6)c5=O)cc4)c3s2)nc1.Cl [Example 11, 1-(4-fluorophenyl)-4-methoxy-N-(4-{[2-(5-{[(2-methoxyethyl)amino]methyl}pyridin-2-yl)thieno[3,2-b]pyridin-7-yl)oxy)phenyl)-2-oxo-1,2-dihydropyridine-3-carboxamide Hydrochloride]	0.26 nM		x 0.99	x 1.65		x 1.16	x 0.94
COCCNCc1ccc(-c2cc3nccc(Oc4ccc(NC(=O)c5c(C)cnn(-c6ccccc6)c5=O)cc4F)c3s2)nc1.Cl [Example 18, N-(3-fluoro-4-{[2-(5-{[(2-methoxyethyl)amino]methyl}pyridin-2-yl)thieno[3,2-b]pyridin-7-yl]oxy}phenyl)-5-methyl-3-oxo-2-phenyl-2,3-dihydropyridazine-4-carboxamide Hydrochloride]	0.77 nM		x 0.56	x 1.09		x 1.33	x 1.37
CCOc1ccn(-c2ccc(F)cc2)c(=O)c1C(=O)Nc1ccc(Oc2ccnc3cc(-c4ccc(CN(C)CCOC)cn4)sc23)c(F)c1 [Example 30, 4-ethoxy-N-(3-fluoro-4-{[2-(5-{[(2-methoxyethyl)(methyl)amino]methyl}pyridin-2-yl)thieno[3,2-b]pyridin-7-yl]oxy}phenyl)-1-(4-fluorophenyl)-2-oxo-1,2-dihydropyridine-3-carboxamide Hydrochloride]	0.88 nM		x 2.48	x 2.06		x 1.34	x 1.07
CCOc1ccn(-c2ccccc2)c(=O)c1C(=O)Nc1ccc(Oc2ccnc3cc(-c4ccc(CN5CCN(C)CC5)cn4)sc23)c(F)c1.Cl [Example 34, Hydrochloride]	0.23 nM	129 nM			6 nM		
